Earlier results, collected in patent publication US20230039272A1, “COMPOSITION FOR IMPROVED ENERGY, FOCUS AND CLARITY” (Gwella Mushrooms Inc., priority 2021, published 2023).
Residues, ends and D or L forms follow the SMILES beside them. *: point of attachment. PhAc = O=C(Cc1ccccc1)*

Columns and labels:
[1] = high doses for long periods of time
[2] = patients with mild to moderate dementia

Row | SMILES | cognition restoring effect (Amyloid Beta exposure; animal models of Alzheimer's Disease, preliminary studies) | neuroprotective effect (cell viability, calcium homeostasis, Reactive Oxygen Species levels, mitochondrial function, tau phosphorylation, neurite outgrowth) (Amyloid Beta exposure; impairments caused by Amyloid Beta exposure) | safety [1] | quality of life scale [2] | test scores on logical performance, attention, concentration, memory and spatial orientation [2] | step-down retention performance and acquisition performance in active-avoidance situations (in vivo) | learning of animals (pre-clinical studies)
1 | CCOC(=O)CNC(=O)[C@@H]1CCCN1C(=O)Cc1ccccc1 [N-phenylacetyl-L-prolylglycine ethyl ester] (PhAc-Pro-Gly-OEt) | cognition restoring effect | neuroprotective effect | – | – | – | – | –
2 | NC(=O)CN1CC(O)CC1=O (stereo not shown) [Oxiracetam] | – | – | save, even at high doses for long periods of time | improved quality of life scale | higher test scores | improve step-down retention performance and acquisition performance | improve learning of animals
